Source: PubChem BioAssay (NCI)
Values joined by “and” are separate entries in the source; they are usually repeats but may differ in a detail not shown here. Equal values may be shown once.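 In this assay, cells in 96-well plates receive the compound at five concentrations for 48 hours. Endpoints are linearly interpolated between the surrounding concentrations. GI50 marks 50% less growth. TGI is the concentration that stops growth completely.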

Experiments:
Test in all cases: growth of human tumour cells (NCI), 48 h
786-0 renal = tested on: 786-0 renal
A498 renal = tested on: A498 renal
A549 NSCLC = tested on: A549 NSCLC
ACHN renal = tested on: ACHN renal
BT-549 breast = tested on: BT-549 breast
CAKI-1 renal = tested on: CAKI-1 renal
CCRF-CEM leukemia = tested on: CCRF-CEM leukemia
COLO 205 colon = tested on: COLO 205 colon
EKVX NSCLC = tested on: EKVX NSCLC
HCC-2998 colon = tested on: HCC-2998 colon
HCT-15 colon = tested on: HCT-15 colon
HOP-62 NSCLC = tested on: HOP-62 NSCLC
HOP-92 NSCLC = tested on: HOP-92 NSCLC
HS 578T breast = tested on: HS 578T breast
HT29 colon = tested on: HT29 colon
IGROV1 ovarian = tested on: IGROV1 ovarian
KM12 colon = tested on: KM12 colon
LOX IMVI melanoma = tested on: LOX IMVI melanoma
M14 melanoma = tested on: M14 melanoma
MALME-3M melanoma = tested on: MALME-3M melanoma
MCF7 breast = tested on: MCF7 breast
MDA-MB-231 breast = tested on: MDA-MB-231 breast
MDA-MB-435 = tested on: MDA-MB-435
MOLT-4 leukemia = tested on: MOLT-4 leukemia
NCI-H23 lung = tested on: NCI-H23 lung
NCI-H460 lung = tested on: NCI-H460 lung
NCI-H522 lung = tested on: NCI-H522 lung
NCI/ADR-RES ovarian = tested on: NCI/ADR-RES ovarian
OVCAR-4 ovarian = tested on: OVCAR-4 ovarian
OVCAR-5 ovarian = tested on: OVCAR-5 ovarian
OVCAR-8 ovarian = tested on: OVCAR-8 ovarian
PC-3 prostate = tested on: PC-3 prostate
RPMI-8226 leukemia = tested on: RPMI-8226 leukemia
SF-268 CNS = tested on: SF-268 CNS
SF-539 CNS = tested on: SF-539 CNS
SK-MEL-28 melanoma = tested on: SK-MEL-28 melanoma
SK-MEL-5 melanoma = tested on: SK-MEL-5 melanoma
SK-OV-3 ovarian = tested on: SK-OV-3 ovarian
SN12C renal = tested on: SN12C renal
SNB-19 CNS = tested on: SNB-19 CNS
SR leukemia = tested on: SR leukemia
SW-620 colon = tested on: SW-620 colon
TK-10 renal = tested on: TK-10 renal
U251 CNS = tested on: U251 CNS
UACC-257 melanoma = tested on: UACC-257 melanoma
UACC-62 melanoma = tested on: UACC-62 melanoma
UO-31 renal = tested on: UO-31 renal
DU-145 prostate = tested on: DU-145 prostate
HCT-116 colon = tested on: HCT-116 colon
HL-60(TB) leukemia = tested on: HL-60(TB) leukemia
K-562 leukemia = tested on: K-562 leukemia
NCI-H226 lung = tested on: NCI-H226 lung
OVCAR-3 ovarian = tested on: OVCAR-3 ovarian
RXF 393 renal = tested on: RXF 393 renal
SF-295 CNS = tested on: SF-295 CNS

In the case of `COc1cccc(-c2cc(=O)c3cc(NC(C)=O)ccc3[nH]2)c1`, the TGI (786-0 renal) is reported as > 100 µM, the TGI (A498 renal) is reported as 61 µM and the TGI (A549 NSCLC) is reported as > 100 µM. For the same compound, the TGI (ACHN renal) was > 100 µM, the TGI (BT-549 breast) was > 100 µM and the TGI (CAKI-1 renal) was > 100 µM. The TGI (CCRF-CEM leukemia) was 9.27 µM, the TGI (COLO 205 colon) was > 100 µM and the TGI (EKVX NSCLC) was > 100 µM. The TGI (HCC-2998 colon) was > 100 µM, the TGI (HCT-15 colon) was > 100 µM and the TGI (HOP-62 NSCLC) was > 100 µM. The TGI (HOP-92 NSCLC) was > 100 µM, the TGI (HS 578T breast) was 8.35 µM and the TGI (HT29 colon) was > 100 µM. The TGI (IGROV1 ovarian) was > 100 µM, the TGI (KM12 colon) was > 100 µM and the TGI (LOX IMVI melanoma) was > 100 µM. The TGI (M14 melanoma) was > 100 µM, the TGI (MALME-3M melanoma) was > 100 µM and the TGI (MCF7 breast) was > 100 µM. For the same compound, the TGI (MDA-MB-231 breast) was > 100 µM, the TGI (MDA-MB-435) was 17.1 µM and the TGI (MOLT-4 leukemia) was > 100 µM. For the same compound, the TGI (NCI-H23 lung) was > 100 µM, the TGI (NCI-H460 lung) was > 100 µM and the TGI (NCI-H522 lung) was > 100 µM. For the same compound, the TGI (NCI/ADR-RES ovarian) was > 100 µM, the GI50 (OVCAR-4 ovarian) was 19.6 µM and the TGI (OVCAR-4 ovarian) was > 100 µM. For the same compound, the TGI (OVCAR-5 ovarian) was > 100 µM, the TGI (OVCAR-8 ovarian) was > 100 µM and the TGI (PC-3 prostate) was > 100 µM. The TGI (RPMI-8226 leukemia) was 96.2 µM, the TGI (SF-268 CNS) was > 100 µM and the TGI (SF-539 CNS) was 44.7 µM. The TGI (SK-MEL-28 melanoma) was > 100 µM, the TGI (SK-MEL-5 melanoma) was 56 µM and the TGI (SK-OV-3 ovarian) was > 100 µM. For the same compound, the TGI (SN12C renal) was > 100 µM, the TGI (SNB-19 CNS) was > 100 µM and the TGI (SR leukemia) was 6 µM. The TGI (SW-620 colon) was > 100 µM, the TGI (TK-10 renal) was > 100 µM and the TGI (U251 CNS) was > 100 µM. For the same compound, the TGI (UACC-257 melanoma) was > 100 µM, the TGI (UACC-62 melanoma) was > 100 µM and the TGI (UO-31 renal) was > 100 µM.

With `Cc1ccnc2[nH]c(-c3cccc4ccccc34)cc(=O)c12` the TGI (786-0 renal) was > 100 µM, the TGI (A498 renal) was 0.0681 µM and the GI50 (A549 NSCLC) was 0.0132 µM. For the same compound, the TGI (A549 NSCLC) was > 100 µM, the GI50 (ACHN renal) was 0.039 µM and the TGI (ACHN renal) was > 100 µM. For the same compound, the TGI (BT-549 breast) was 72 µM, the TGI (CAKI-1 renal) was > 100 µM and the TGI (CCRF-CEM leukemia) was > 100 µM. For the same compound, the GI50 (COLO 205 colon) was 0.015 µM, the TGI (COLO 205 colon) was 0.0992 µM and 0.205 µM and the GI50 (DU-145 prostate) was 0.0284 µM. For the same compound, the TGI (DU-145 prostate) was > 100 µM, the GI50 (EKVX NSCLC) was 0.0151 µM and the TGI (EKVX NSCLC) was 34.6 µM. For the same compound, the GI50 (HCC-2998 colon) was 0.101 µM, the TGI (HCC-2998 colon) was 0.363 µM and 0.707 µM and the TGI (HCT-116 colon) was 14.2 µM. The GI50 (HCT-15 colon) was 0.0152 µM, the TGI (HCT-15 colon) was > 100 µM and the TGI (HL-60(TB) leukemia) was 0.00697 µM. The GI50 (HOP-62 NSCLC) was 7.39 µM, the TGI (HOP-62 NSCLC) was > 100 µM and the GI50 (HS 578T breast) was 0.0173 µM. The TGI (HS 578T breast) was 92.7 µM, the TGI (HT29 colon) was 0.0785 µM and 0.0628 µM and the GI50 (IGROV1 ovarian) was 0.0585 µM. For the same compound, the TGI (IGROV1 ovarian) was 50 µM, the TGI (K-562 leukemia) was 63.9 µM and the TGI (KM12 colon) was 3.85 µM. The TGI (LOX IMVI melanoma) was 17.1 µM, the GI50 (M14 melanoma) was 0.0132 µM and the TGI (M14 melanoma) was > 100 µM. The TGI (MALME-3M melanoma) was 0.0474 µM, the GI50 (MCF7 breast) was 0.0431 µM and the TGI (MCF7 breast) was 28 µM. For the same compound, the GI50 (MDA-MB-231 breast) was 0.0656 µM, the TGI (MDA-MB-231 breast) was 6.8 µM and the TGI (MDA-MB-435) was 0.000495 µM. The TGI (MOLT-4 leukemia) was > 100 µM, the TGI (NCI-H226 lung) was 33.9 µM and the GI50 (NCI-H23 lung) was 0.0315 µM. The TGI (NCI-H23 lung) was > 100 µM, the TGI (NCI-H460 lung) was > 100 µM and the TGI (NCI-H522 lung) was 0.00758 µM and 0.0471 µM. The TGI (OVCAR-3 ovarian) was 0.0115 µM, the GI50 (OVCAR-4 ovarian) was 17.6 µM and the TGI (OVCAR-4 ovarian) was > 100 µM. For the same compound, the GI50 (OVCAR-5 ovarian) was 0.0813 µM, the TGI (OVCAR-5 ovarian) was > 100 µM and the GI50 (OVCAR-8 ovarian) was 0.0169 µM. The TGI (OVCAR-8 ovarian) was 16 µM, the GI50 (PC-3 prostate) was 0.0199 µM and the TGI (RPMI-8226 leukemia) was 28.6 µM. The TGI (RXF 393 renal) was > 100 µM, the GI50 (SF-268 CNS) was 15.8 µM and the TGI (SF-268 CNS) was > 100 µM. For the same compound, the GI50 (SF-295 CNS) was 0.0107 µM, the TGI (SF-295 CNS) was > 100 µM and the TGI (SK-MEL-28 melanoma) was 40.2 µM. For the same compound, the GI50 (SN12C renal) was 0.678 µM, the TGI (SN12C renal) was > 100 µM and the TGI (SNB-19 CNS) was > 100 µM. The TGI (SR leukemia) was 34.8 µM, the TGI (SW-620 colon) was > 100 µM and the GI50 (TK-10 renal) was 25.8 µM. The TGI (TK-10 renal) was > 100 µM, the TGI (UACC-257 melanoma) was > 100 µM and the TGI (UACC-62 melanoma) was 26.5 µM. The GI50 (UO-31 renal) was 0.0368 µM and the TGI (UO-31 renal) was 53.8 µM.
